Measurements: ChEMBL document CHEMBL4393693, “Synthesis and Structure-Activity relationship of 1-(5-isoquinolinesulfonyl)piperazine analogues as inhibitors of Mycobacterium tuberculosis IMPDH” (Eur J Med Chem, 2019)

Assay: Inhibition of recombinant N-terminal His6-tagged Mycobacterium tuberculosis H37Rv IMPDH expressed in Escherichia coli BL21 (DE3) cells assessed as reduction of NAD+ to NADH using IMP and NAD+ as substrate treated 1 min after substrate incubation with enzyme by UV-visible spectrophotometry

Compound: O=C(NCCNS(=O)(=O)c1cccc2cnccc12)C1CCCCC1
- IC50: 0.5 to 1.5 µM
